Test [1] relates to ATF4 and DDIT3 gene expression in retina. In words: Retinal Atf4 and Ddit3 gene expression after IP dosing, normoxic and OIR neonatal mice. The test is classed as in vivo, mouse. The settings on record: IP 10, 30 or 90 mpk at P12, 4 or 24 hours. How it is done:
(§1) Compound 39 was tested in an animal model that shares many hallmarks with human ischemic retinopathies, the oxygen-induced retinopathy (OIR) neonatal mouse. To investigate the pharmacodynamic effect of Compound 39, it was intraperitoneally (IP) administered at either 10, 30, or 90 mpk. The dosing formulation was based on a vehicle comprising 1% Pluronic F-68/1% HPMC, 15% captisol. Both normoxic and OIR neonates were treated at P12 (the end of hyperoxia) and taken down after 4 hours, or 24 hours later at P13. Retinas were dissected, and RNA was extracted using a fully automated, spin-column-based nucleic acid extraction instrument (Qiacube Connect™). qPCR was performed using standard TaqMan® reagents and conditions. Atf4, Ddit3, and Tbp (control) gene expression was determined using primers: Mm00515324_m1, Mm00492097_m1, and Mm01277042_m1, respectively.

Test [2] relates to ATF4 protein expression in retina. In words: Retinal ATF4 protein immunoblot after IP dosing, adult retinas. The test is classed as in vivo, mouse. The settings on record: IP 30 and 60 mpk, adult retinas 4 hours post administration, immunoblot vs Actinin (FIG. 11C). As for the experimental part:
Intraperitoneally administered Compound 39 activated ATF4 protein expression at 30 and 60 mpk. Adult eye retinas were dissected 4 hours post Compound 39 administration and the harvested samples were kept on ice and homogenized using Precellys™ (500 μL tubes) tissue homogenizer in 300 μL MSD Tris Lysis buffer containing Pierce Protease Inhibitor Complete Mini tablet (ThermoScientific™ A32963). Homogenized samples were then centrifuged to separate supernatant from debris. Lysates were separated by SDS-PAGE and immunoblotted for ATF4 (D4B8) and control protein Actinin (Cell Signaling, cat. 3134S).

The subject of test [3] is ATF4, p-eIF2a, HIF1α protein in retina. In words: Retinal immunoblot of ATF4, p-eIF2a and HIF1α after IP dosing, normoxic and OIR retinas. The test is classed as in vivo, mouse. The settings on record: IP 30 mpk, 4 hours after administration, OIR neonates, immunoblot (FIG. 13). How it is done: Normoxic and OIR eye retinas were dissected 4 hours after Compound 39 administration and the harvested samples were kept on ice and homogenized using Precellys (500 μL tubes) tissue homogenizer in 300 μL LSD Sample/Lysis buffer. Homogenized samples were then centrifuged to separate supernatant from debris. Lysates were separated by SDS-PAGE and immunoblotted for ATF4 (D4B8), p-eIF2a (D9G8), and HIF1α (Novus™, cat. NB100-449) and control protein Actinin (Cell Signaling™, cat. 3134S).

For test [4], the system named is p-eIF2a, ATF4, DDIT3 (CHOP). Description: Immunoblot of p-eIF2a, ATF4 and DDIT3 in mouse embryonic fibroblasts. It counts as cell-based. The settings on record: MEF cells, 250 nM, five hours, immunoblot (FIG. 10B). As for the experimental part:
Next, mouse embryonic fibroblasts (MEF) cells were cultured to near confluency and treated for five hours with a fixed concentration (250 nM) of Compound 39. Cells were harvested in LSD lysis buffer and homogenates were separated by SDS-PAGE. Immunoblotting was performed overnight using antibodies targeting p-eIF2a (Clone D9G8), ATF4 (Clone D4B8), and DNA damage inducible transcript 3 (DDIT3) (Clone 9C8). Compound 39 treatment increases the levels of phospho-eIF2a (p-eIF2a) as well as ATF4 and DDIT3 (CHOP).
A general note: A western blot detects proteins with antibodies after separation by electrophoresis.

The subject of test [5] is GCN2. Description: DDIT3 gene expression (qPCR) in GCN2 knockout, PERK knockout and WT cells. The test is classed as cell-based. The settings on record: GCN2 knockout, 250 nM, five hours, qPCR (FIG. 10D). As for the experimental part: To determine if DDIT3 activation by Compound 39 is dependent on GCN2 activation, rather than PERK, the following experiment was performed. GCN2 knockout cells (CRL-2978™), PERK knockout cells (CRL-2976™), or WT controls cells (ATCC CRL-2977™) were cultured to near confluency and treated for five hours with a fixed concentration (250 nM) of Compound 39. Following treatment, RNA was extracted using the RNeasy® 96-Kit (Qiagen), and cDNA was next generated using Superscript™ IV VILO™ Master Mix (Thermofisher®). qPCR was performed using standard TaqMan reagents and conditions. DDIT3 gene expression was detected using primer Hs00358796_g1 and Tbp was used as a control gene using primer (Hs99999910_m1).

Test [6] has as its system cellular ATF4 protein. In words: ATF4-HiBiT reporter assay in H2122 cells (GCN2 pathway activation). It counts as cell-based. Conditions: five hours, quarter-log dilutions from 10 μM (FIG. 10A). As for the experimental part: Without any limitations, such assays may be used to test other compounds for GCN2 pathway activation. Activating transcription factor 4 (ATF4) was C-terminally tagged in H2122 cells (CRL-5985™) with a high affinity luciferase complementation fragment (HiBiT) through a knock-in approach using CRISPR-Cas12a technology and a single-stranded oligo DNA nucleotides (ssODNs) template carrying the HiBiT tag. Following reporter cell-line generation (H2122 ATF4-HiBIT) cells were seeded in a 96-well plate at near confluency and treated the next day with Compound 39 for five hours. A dose response was generated using quarter-log dilutions using 10 μM as the starting concentration. The Nano-Glo® HiBiT Lytic Detection (Promega®) reagent was added after five hours and allowed for plate-based bioluminescent quantification of cellular ATF4 protein using an add-mix-read assay format. Peak activation of ATF4 expression was detected at ˜250 nM of Compound 39.

For test [7], the system named is Slc7a11 and Serpinf1 gene expression in retina. In words: Retinal Slc7a11 and Serpinf1 gene expression after IP dosing, normoxic and OIR neonatal mice. It counts as in vivo, mouse. Conditions: IP 10, 30 or 90 mpk at P12, 4 or 24 hours. How it is done: as §1, with “To” for “Compound 39 was tested in an animal model that shares many hallmarks with human ischemic retinopathies, the oxygen-induced retinopathy (OIR) neonatal mouse. To”, “administrated” for “(IP) administered”, “mpk in both normoxic and OIR neonatal mice.” for “mpk.”, “TaqMan” for “TaqMan®”, “Slc7a11, Serpinf1,” for “Atf4, Ddit3,”, “primers Mm00442530_m1, Mm00441270_m1,” for “primers: Mm00515324_m1, Mm00492097_m1,”

This note sets out measurements from patent US20240245680A1, “Methods of Treating Retinal Vasculopathies” (Unity Biotechnology, Inc., priority 2021, published 2024).

For `CNc1nc2ccc(-c3c(C)ccc(C(=O)c4c(-c5ccccc5)n(C)n(-c5ccccc5)c4=O)c3N)cc2s1` [Compound 39, 4-(2-Amino-4-methyl-3-(2-(methylamino)benzo[d]thiazol-6-yl)benzoyl)-1-methyl-2,5-diphenyl-1H-pyrazol-3(2H)-one], the “induction of ATF4 gene expression in retina” value in test [1] (normoxic and OIR neonates (FIG. 11A)) is “dose-dependent induction”. Besides, in test [1] (normoxic and OIR neonates (FIG. 11B)), the “induction of DDIT3 gene expression in retina” value was “dose-dependent induction”. Also, in test [2], the “levels of ATF4 protein in retina” value is “increased”. Further, in test [3], the “HIF1α protein levels in retina” value was “downregulated”, the “levels of ATF4 protein in retina” value is “increased” and the “phospho-eIF2α levels in retina” value is “increased”. Besides, in test [4], the “levels of ATF4” value was “increases”, the “levels of DDIT3 (CHOP)” value is listed as “increases” and the “levels of phospho-eIF2a (p-eIF2a)” value is listed as “increases”. Also, the “dependence of DDIT3 induction on GCN2 or PERK” value in test [5] was “dependent on GCN2 but not PERK”. Besides, the “concentration of peak activation of ATF4 expression” value in test [6] is on record as about 250 nM. The “induction of retinal Slc7a11 gene expression” value in test [7] (normoxic and OIR neonatal mice (FIG. 12A)) was “dose-dependent induction”. For the same compound, the “induction of retinal Serpinf1 gene expression” value in test [7] (normoxic and OIR neonatal mice (FIG. 12B)) is “dose-dependent induction”.
